PubChem BioAssay (NCI)
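Method: 48-hour compound exposure of cells in 96-well plates, five concentrations, linear interpolation of endpoints. TGI denotes the concentration required for complete inhibition of growth.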

How the values were obtained:
Assay in all cases: NCI anticancer screen, dose series, 48 h
PC-3 prostate = tested on: PC-3 prostate
NCI/ADR-RES ovarian = tested on: NCI/ADR-RES ovarian
IGROV1 ovarian = tested on: IGROV1 ovarian
LOX IMVI melanoma = tested on: LOX IMVI melanoma
HCT-15 colon = tested on: HCT-15 colon
RXF 393 renal = tested on: RXF 393 renal
SK-MEL-2 melanoma = tested on: SK-MEL-2 melanoma
MDA-N = tested on: MDA-N
NCI-H226 lung = tested on: NCI-H226 lung
A549 NSCLC = tested on: A549 NSCLC
CAKI-1 renal = tested on: CAKI-1 renal
DU-145 prostate = tested on: DU-145 prostate
SF-295 CNS = tested on: SF-295 CNS
T-47D breast = tested on: T-47D breast
HL-60(TB) leukemia = tested on: HL-60(TB) leukemia
HT29 colon = tested on: HT29 colon
NCI-H460 lung = tested on: NCI-H460 lung
SNB-19 CNS = tested on: SNB-19 CNS

Structure (SMILES) | TGI (PC-3 prostate) | TGI (NCI/ADR-RES ovarian) | TGI (IGROV1 ovarian) | TGI (LOX IMVI melanoma) | TGI (HCT-15 colon) | TGI (RXF 393 renal) | TGI (SK-MEL-2 melanoma) | TGI (MDA-N) | TGI (NCI-H226 lung) | TGI (A549 NSCLC) | TGI (CAKI-1 renal) | TGI (DU-145 prostate) | TGI (SF-295 CNS) | TGI (T-47D breast) | TGI (HL-60(TB) leukemia) | TGI (HT29 colon) | TGI (NCI-H460 lung) | TGI (SNB-19 CNS)
CC(C)C1CC(CO)(CNc2nc(N)nc(Cl)c2/C=N\O)C1 (stereo unspecified) | 26.5 µM | 27.5 µM | 50.1 µM | 22.5 µM | 32.7 µM | 55.1 µM | 26.5 µM | 23.9 µM | 51.2 µM | 18.8 µM | 33.7 µM | > 100 µM | > 68.2 µM | 4.91 µM | 29.1 µM | 15.5 µM | 3.14 µM | > 100 µM
CC1(C)CCCC2CC2CCC(C)(C)C1=O (stereo unspecified) | > 100 µM | > 100 µM | > 100 µM | > 100 µM | > 100 µM | 87.7 µM | > 100 µM | > 100 µM | > 100 µM | > 100 µM | > 100 µM | > 100 µM | > 100 µM | > 100 µM | 41.2 µM | > 100 µM | > 100 µM | > 100 µM
CCCCCCc1cc2cc(C(=O)NCc3ccccc3)c(=N)oc2cc1O | > 100 µM | > 100 µM | > 100 µM | > 100 µM | > 100 µM | > 100 µM | > 100 µM | > 100 µM | > 100 µM | > 100 µM | > 100 µM | > 100 µM | – | > 100 µM | > 100 µM | > 100 µM | > 100 µM | > 100 µM
Cc1c2oc3c(C)cnc(C(=O)NC4C(=O)NC(C(C)C)C(=O)N5CCCC5C(=O)N(C)CC(=O)N(C)C(C(C)C)C(=O)OC4C)c3nc-2c(C(=O)NC2C(=O)NC(C(C)C)C(=O)N3CCCC3C(=O)N(C)CC(=O)N(C)C(C(C)C)C(=O)OC2C)c(N)c1=O (stereo unspecified) | > 47.1 µM | > 75 µM | > 75 µM | 10.3 µM | > 75 µM | 18.8 µM | 10.4 µM | 16.9 µM | 23.8 µM | > 75 µM | 73 µM | > 75 µM | 39.9 µM | > 53.4 µM | > 26 µM | > 75 µM | > 24.6 µM | > 68.4 µM
O=S(=O)(O)c1ccc(Nc2ccnc3ccccc23)cc1 | > 100 µM | > 100 µM | > 100 µM | > 100 µM | > 100 µM | > 100 µM | > 100 µM | > 100 µM | > 100 µM | > 100 µM | > 100 µM | > 100 µM | > 100 µM | > 100 µM | > 100 µM | > 100 µM | – | > 100 µM
CCOC(CN(C)C(=O)Nc1ccc(Cl)c(Cl)c1)OCC | > 10 µM | > 10 µM | > 10 µM | > 10 µM | > 10 µM | > 10 µM | > 10 µM | > 10 µM | > 10 µM | > 10 µM | > 10 µM | > 10 µM | > 10 µM | > 10 µM | > 10 µM | > 10 µM | > 10 µM | > 10 µM
CN1CN(c2ccccc2)C2(CCN(C3Nc4ccccc4O3)CC2)C1=O (stereo unspecified) | 45.2 µM | 56.1 µM | 58.5 µM | 26.8 µM | 28.8 µM | 35.5 µM | 28.3 µM | 49.1 µM | 50.3 µM | > 100 µM | > 100 µM | 60.1 µM | 33.6 µM | 58.8 µM | 43.5 µM | 33 µM | 43.9 µM | 74.4 µM
O=C1C=CC(=O)c2c(O)c(NCCO)c(Cl)c(O)c21 | > 10 µM | > 10 µM | 5.63 µM | 3 µM | 6.47 µM | 3.46 µM | > 6.68 µM | 3.42 µM | > 10 µM | 3.78 µM | > 10 µM | 4.98 µM | 4.81 µM | > 7.77 µM | 5.95 µM | 7.43 µM | 8.68 µM | > 10 µM
O=C(CCc1ccc(O)c(O)c1)NCCc1ccccc1 | > 51.9 µM | > 100 µM | > 100 µM | > 100 µM | > 100 µM | > 100 µM | > 93.7 µM | 43.3 µM | > 100 µM | > 100 µM | 41 µM | > 100 µM | > 100 µM | > 100 µM | 34 µM | > 72.2 µM | > 100 µM | > 100 µM
O=C(NNC(=S)Nc1ccc(Cl)cc1)C12CC3CC(CC(C3)C1)C2 | 19.2 µM | 14.8 µM | 33.1 µM | 19 µM | 42.5 µM | 48.6 µM | 38.2 µM | 43.6 µM | 31.6 µM | 24.9 µM | 49.5 µM | 43.6 µM | 26.6 µM | 41.4 µM | 5.48 µM | 21.4 µM | 24.5 µM | > 79.2 µM
CC(C)(C)C(O)CC(O)(C(F)(F)F)C(F)(F)F (stereo unspecified) | > 100 µM | > 100 µM | > 100 µM | > 100 µM | > 100 µM | > 100 µM | > 100 µM | > 100 µM | > 100 µM | > 100 µM | > 100 µM | > 100 µM | > 100 µM | > 100 µM | > 100 µM | > 100 µM | > 100 µM | > 100 µM
Cc1cccc2c(N)c3cccc(C(=O)NCC[N+](C)(C)Cc4ccc(S(C)(=O)=O)cc4)c3nc12 | > 100 µM | > 100 µM | > 100 µM | > 100 µM | > 100 µM | > 100 µM | > 100 µM | > 100 µM | > 100 µM | > 100 µM | > 100 µM | > 100 µM | > 100 µM | > 100 µM | 38.6 µM | > 100 µM | > 100 µM | > 100 µM
O=C(c1cc(Cl)cc(Cl)c1)N(Cc1cccnc1)C(=S)N(Cc1cccnc1)C(=O)c1cc(Cl)cc(Cl)c1 | 60.6 µM | > 100 µM | – | > 100 µM | 83.3 µM | 92.7 µM | 99.2 µM | > 100 µM | > 100 µM | > 100 µM | > 100 µM | > 100 µM | > 100 µM | > 100 µM | 90 µM | > 100 µM | > 100 µM | > 100 µM
